From the supplement of paper PMC10307832

How the values were obtained:
Assay in all cases: relative viability (nuclei count vs DMSO), 5 days (fraction); higher = more cells survive
[1] = compound: Cc1ccc2nc(NCCN)c3ncc(C)n3c2c1 + C[C@@H](Oc1cc(-c2cnn(C3CCNCC3)c2)cnc1N)c1c(Cl)ccc(F)c1Cl [Crizotinib] (partner 1 µM)
Procedure, shortened: (§1)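 Cells from lung cancer lines were seeded into 1536-well plates and, one day later, dosed by pin tool. Treatments were either a single drug or a fixed dose of an anchor drug with five library-drug doses (not always all listed) in √10 steps. After 5 days, nuclei were stained in a one-step fixation (final 0.05% Triton X-100, 1% formaldehyde, 1 ug/ml Hoechst) and counted on 4× images, and relative viability is the treated-to-vehicle nuclei ratio, as the median of duplicate plates.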

[2] = compound: Cc1ccc2nc(NCCN)c3ncc(C)n3c2c1 + C[C@]1(O)C[C@@H](c2nc(-c3ccc4ccc(-c5ccccc5)nc4c3)c3c(N)nccn32)C1 [Linsitinib] (partner 1 µM)
Procedure, shortened: as §1

Salubrinal + Palbociclib = compound: O=C(/C=C/c1ccccc1)NC(NC(=S)Nc1cccc2cccnc12)C(Cl)(Cl)Cl [Salubrinal] + CC(=O)c1c(C)c2cnc(Nc3ccc(N4CCNCC4)cn3)nc2n(C2CCCC2)c1=O [Palbociclib] (partner 0.5 µM)
Procedure, shortened: as §1

Salubrinal + Decitabine = compound: O=C(/C=C/c1ccccc1)NC(NC(=S)Nc1cccc2cccnc12)C(Cl)(Cl)Cl [Salubrinal] + Nc1ncn([C@H]2C[C@H](O)[C@@H](CO)O2)c(=O)n1 [Decitabine] (partner 2 µM)
Procedure, shortened: as §1

Row | Cell Line | relative viability ([1]; first compound 0.04 µM) | relative viability ([1]; first compound 0.1265 µM) | relative viability ([1]; first compound 0.4 µM) | relative viability ([1]; first compound 1.265 µM) | relative viability ([1]; first compound 4 µM) | relative viability ([2]; first compound 0.04 µM) | relative viability ([2]; first compound 0.1265 µM) | relative viability ([2]; first compound 0.4 µM) | relative viability ([2]; first compound 1.265 µM) | relative viability ([2]; first compound 4 µM) | relative viability (Salubrinal + Palbociclib; first compound 0.08 µM) | relative viability (Salubrinal + Palbociclib; first compound 0.253 µM) | relative viability (Salubrinal + Palbociclib; first compound 0.8 µM) | relative viability (Salubrinal + Palbociclib; first compound 2.53 µM) | relative viability (Salubrinal + Palbociclib; first compound 8 µM) | relative viability (Salubrinal + Decitabine; first compound 0.08 µM) | relative viability (Salubrinal + Decitabine; first compound 0.253 µM) | relative viability (Salubrinal + Decitabine; first compound 0.8 µM) | relative viability (Salubrinal + Decitabine; first compound 2.53 µM) | relative viability (Salubrinal + Decitabine; first compound 8 µM)
1 | LOU-NH91 | 0.753 | 0.714 | 0.748 | 0.727 | 0.749 | 0.964 | 0.865 | 0.977 | 0.942 | 0.959 | 0.6 | 0.565 | 0.521 | 0.556 | 0.569 | 0.837 | 0.842 | 0.817 | 0.845 | 0.777
2 | LU99A | 0.636 | 0.549 | 0.49 | 0.565 | 0.635 | 0.568 | 0.524 | 0.526 | 0.561 | 0.522 | 0.419 | 0.425 | 0.458 | 0.388 | 0.447 | 1.05 | 0.844 | 0.938 | 0.951 | 0.757
3 | LXF-289 | 0.806 | 0.834 | 0.842 | 0.857 | 0.856 | 0.981 | 0.949 | 0.967 | 0.975 | 1.01 | 0.678 | 0.478 | 0.633 | 0.578 | 0.578 | 0.338 | 0.382 | 0.357 | 0.43 | 0.405
4 | NCI-H23 | 0.731 | 0.549 | 0.554 | 0.437 | 0.447 | 0.746 | 0.489 | 0.55 | 0.611 | 0.576 | 0.635 | 0.387 | 0.598 | 0.46 | 0.501 | 0.315 | 0.316 | 0.304 | 0.312 | 0.291
5 | NCI-H322M | 1.02 | 0.882 | 0.832 | 0.944 | 0.876 | 0.889 | 0.907 | 0.857 | 0.79 | 0.899 | 0.528 | 0.445 | 0.547 | 0.483 | 0.518 | 0.785 | 0.648 | 0.684 | 0.716 | 0.656
6 | NCI-H358 | 0.613 | 0.594 | 0.691 | 0.583 | 0.487 | 0.755 | 0.769 | 0.694 | 0.88 | 0.665 | 0.154 | 0.137 | 0.123 | 0.109 | 0.138 | 0.24 | 0.219 | 0.234 | 0.188 | 0.202
7 | NCI-H441 | 0.904 | 0.665 | 0.684 | 0.617 | 0.947 | 0.752 | 0.509 | 0.714 | 0.563 | 0.504 | 0.222 | 0.189 | 0.313 | 0.23 | 0.201 | 0.235 | 0.243 | 0.265 | 0.269 | 0.222
8 | NCI-H460 | 0.98 | 0.923 | 0.952 | 0.851 | 0.64 | 0.759 | 0.735 | 0.751 | 0.692 | 0.642 | 0.202 | 0.158 | 0.184 | 0.145 | 0.105 | 0.517 | 0.461 | 0.475 | 0.379 | 0.444
9 | NCI-H520 | 0.725 | 0.699 | 0.761 | 0.791 | 0.639 | 0.997 | 1.15 | 0.947 | 0.884 | 0.853 | 0.25 | 0.225 | 0.23 | 0.21 | 0.271 | 0.551 | 0.579 | 0.575 | 0.501 | 0.576
10 | NCI-H647 | 1.29 | 1.03 | 1.12 | 0.93 | 0.852 | 1.34 | 1.15 | 1.22 | 1.08 | 1.18 | 0.56 | 0.37 | 0.39 | 0.431 | 0.347 | 0.389 | 0.452 | 0.451 | 0.443 | 0.552
11 | NCI-H650 | 0.855 | 0.608 | 0.718 | 0.583 | 0.672 | 0.852 | 0.828 | 0.994 | 0.911 | 0.69 | 0.346 | 0.3 | 0.355 | 0.332 | 0.298 | 0.288 | 0.297 | 0.352 | 0.298 | 0.323
12 | NCI-H661 | 1.05 | 1.07 | 0.931 | 1.07 | 0.959 | 0.644 | 0.511 | 0.449 | – | 0.543 | 0.424 | 0.436 | 0.412 | 0.412 | 0.398 | 0.602 | 0.474 | 0.57 | 0.474 | 0.536
13 | NCI-H727 | 0.984 | 0.82 | 0.779 | 0.811 | 0.925 | 0.322 | 0.352 | 0.285 | 0.308 | 0.338 | 0.672 | 0.585 | 0.656 | 0.605 | 0.691 | 0.802 | 0.876 | 0.847 | 0.837 | 0.825
14 | NCI-H838 | 0.844 | 0.777 | 0.795 | 0.789 | 0.762 | 1.01 | 0.956 | 0.964 | 0.995 | 0.97 | 0.225 | 0.244 | 0.218 | 0.247 | 0.214 | 0.493 | 0.471 | 0.462 | 0.417 | 0.464
15 | NCI-H1355 | 1.1 | 1.15 | 1.04 | 1.01 | 0.983 | 0.811 | 0.825 | 0.814 | 0.771 | 0.719 | 0.423 | 0.472 | 0.412 | 0.402 | 0.364 | 0.352 | 0.394 | 0.359 | 0.36 | 0.35
16 | NCI-H1437 | 0.96 | 0.968 | 0.965 | 0.952 | 0.915 | 0.991 | 0.932 | 1.03 | 0.936 | 0.821 | 0.321 | 0.334 | 0.327 | 0.315 | 0.322 | 0.549 | 0.502 | 0.523 | 0.564 | 0.612
